Key:
[1] = Therapeutic index, ratio of cardiovascular toxicity in dog to bronchodilatory activity in intratracheally dosed dog; type: organism-based, Canis lupus familiaris, Trachea; conditions: in vivo, inhaled or intranasal, read-out: TI
[2] = target: Muscarinic acetylcholine receptor M3 (Homo sapiens, UniProt P20309); assay: Displacement of [3H]-N-methyl scopolamine from human cloned muscarinic M3 receptor
[3] = target: Beta-2 adrenergic receptor (Homo sapiens, UniProt P07550); assay: Agonist activity at human beta-2 adrenoceptor expressed in CHO cells assessed as stimulation of intracellular cAMP production; type: functional, cell-based
Chain of Beta-2 adrenergic receptor (P07550 whole entry): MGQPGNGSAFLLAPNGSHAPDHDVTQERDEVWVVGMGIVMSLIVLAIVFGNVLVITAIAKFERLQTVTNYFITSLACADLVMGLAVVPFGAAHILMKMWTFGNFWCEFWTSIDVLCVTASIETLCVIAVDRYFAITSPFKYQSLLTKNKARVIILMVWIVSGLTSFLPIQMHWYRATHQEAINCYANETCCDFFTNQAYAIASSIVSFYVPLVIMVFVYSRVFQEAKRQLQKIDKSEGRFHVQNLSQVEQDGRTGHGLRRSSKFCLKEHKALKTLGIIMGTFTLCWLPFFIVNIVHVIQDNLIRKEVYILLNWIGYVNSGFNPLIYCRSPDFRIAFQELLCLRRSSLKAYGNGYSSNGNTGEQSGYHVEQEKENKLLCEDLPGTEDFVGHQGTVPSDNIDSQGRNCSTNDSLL

[4] = target: Beta-1 adrenergic receptor (Homo sapiens, UniProt P08588); assay: Agonist activity at beta-1 adrenoceptor (unknown origin)
Chain of Beta-1 adrenergic receptor (P08588 whole entry): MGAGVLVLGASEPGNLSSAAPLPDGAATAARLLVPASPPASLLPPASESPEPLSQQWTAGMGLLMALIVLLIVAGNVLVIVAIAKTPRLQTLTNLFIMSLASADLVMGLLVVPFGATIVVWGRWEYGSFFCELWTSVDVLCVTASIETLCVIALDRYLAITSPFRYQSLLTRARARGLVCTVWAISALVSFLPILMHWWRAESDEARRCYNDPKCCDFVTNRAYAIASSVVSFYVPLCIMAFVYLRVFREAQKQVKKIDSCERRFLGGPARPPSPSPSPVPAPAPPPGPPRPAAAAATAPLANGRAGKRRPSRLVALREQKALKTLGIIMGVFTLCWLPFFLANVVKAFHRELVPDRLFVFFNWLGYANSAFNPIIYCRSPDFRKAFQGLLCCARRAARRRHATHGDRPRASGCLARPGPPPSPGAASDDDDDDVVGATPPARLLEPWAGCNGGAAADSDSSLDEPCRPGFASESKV

[5] = Drug metabolism of the compound in human liver microsomes assessed as glucuronidation in absence of NADPH and presence of microsomal activator Brij58 and UDPGA
[6] = Intrinsic clearance in human liver microsomes assessed as glucuronidation in absence of NADPH and presence of microsomal activator Brij58 and UDPGA

Chain of Muscarinic acetylcholine receptor M3 (P20309 whole entry): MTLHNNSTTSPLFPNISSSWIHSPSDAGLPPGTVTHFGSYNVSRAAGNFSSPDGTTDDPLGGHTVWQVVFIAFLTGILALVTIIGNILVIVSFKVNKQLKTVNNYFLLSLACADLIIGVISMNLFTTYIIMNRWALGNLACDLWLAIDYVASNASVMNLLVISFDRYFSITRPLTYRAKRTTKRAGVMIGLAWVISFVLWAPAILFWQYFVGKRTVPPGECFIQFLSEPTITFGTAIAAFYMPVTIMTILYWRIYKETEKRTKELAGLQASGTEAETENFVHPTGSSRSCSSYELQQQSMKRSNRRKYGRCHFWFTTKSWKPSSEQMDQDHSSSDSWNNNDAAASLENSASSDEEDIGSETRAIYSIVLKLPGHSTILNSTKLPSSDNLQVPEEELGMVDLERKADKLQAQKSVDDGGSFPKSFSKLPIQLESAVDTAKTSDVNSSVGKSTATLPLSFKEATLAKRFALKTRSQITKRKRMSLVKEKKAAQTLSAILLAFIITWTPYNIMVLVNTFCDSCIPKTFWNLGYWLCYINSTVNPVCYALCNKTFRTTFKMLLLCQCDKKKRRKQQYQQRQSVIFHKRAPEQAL

SMILES | Ki [2] | EC50 [3] | EC50 [4] | microsomal CLint [5] | microsomal CLint [6] | selectivity ratio [1]
OCc1cc(C(O)CNCCCCCCOCCCCc2ccccc2)ccc1O (stereo unspecified) [SALMETEROL] |  |  |  |  |  | 3
Cc1cc(C)c(NC(=O)OC2CCN(CCCCCCCCCNC[C@H](O)c3ccc(O)c(NS(C)(=O)=O)c3)CC2)c(-c2ccc(O)c(Cl)c2)c1 | 38 nM | 36 nM | > 10000 nM | 32 µL/min/mg | 79 µL/min/mg | 
O=C(Nc1ccccc1-c1ccccc1)OC1CCN(CCCCCCCCCNC[C@H](O)c2ccc(O)c3[nH]c(=O)ccc23)CC1 |  |  | > 10000 nM |  |  | 
CS(=O)(=O)Nc1cc([C@@H](O)CNCCCCCCCCCN2CCC(OC(=O)Nc3ccccc3-c3ccccc3)CC2)ccc1O | 0.39 nM | 74 nM | > 10000 nM | < 2 µL/min/mg | 40 µL/min/mg | 
CS(=O)(=O)Nc1cc([C@@H](O)CNCCCCCCCCCN2CCC(OC(=O)Nc3ccc(F)cc3-c3ccc(O)c(Cl)c3)CC2)ccc1O | 1.1 nM | 23 nM | > 10000 nM | 17 µL/min/mg | 25 µL/min/mg | 
CS(=O)(=O)Nc1cc([C@@H](O)CNCCc2ccc(OCCN3CCC(OC(=O)Nc4ccccc4-c4ccc(O)c(Cl)c4)CC3)cc2)ccc1O | 36 nM |  | > 10000 nM | 48 µL/min/mg | 74 µL/min/mg | 
CS(=O)(=O)Nc1cc([C@@H](O)CNCCCCCCCCCN2CCC(OC(=O)Nc3ccccc3-c3cc(F)cc(F)c3O)CC2)ccc1O | 22 nM | 102 nM | > 10000 nM | < 3.5 µL/min/mg | 20 µL/min/mg | 
CS(=O)(=O)Nc1cc([C@@H](O)CNCCCCCCCCCN2CCC(OC(=O)Nc3ccccc3-c3ccccc3O)CC2)ccc1O | 18 nM | 90 nM | > 10000 nM | < 2 µL/min/mg | 17 µL/min/mg | 
CS(=O)(=O)Nc1cc([C@@H](O)CNCCCCCCCCCN2CCC(OC(=O)Nc3ccccc3-c3cc(F)c(O)cc3F)CC2)ccc1O | 8.3 nM | 22 nM | > 10000 nM | 90 µL/min/mg | 13 µL/min/mg | 

Now from value to compound, other results behind:

Ki [2] | EC50 [3] | EC50 [4] | microsomal CLint [5] | microsomal CLint [6] | SMILES | selectivity ratio [1]
2 nM | 21 nM | > 10000 nM | 22 µL/min/mg | 34 µL/min/mg | CS(=O)(=O)Nc1cc([C@@H](O)CNCCCCCCCCCCN2CCC(OC(=O)Nc3ccccc3-c3ccc(O)c(Cl)c3)CC2)ccc1O | 
4.4 nM | 57 nM | > 10000 nM | 6 µL/min/mg | 15 µL/min/mg | CS(=O)(=O)Nc1cc([C@@H](O)CNCCCCCCCCCN2CCC(OC(=O)Nc3cc(F)ccc3-c3ccc(O)c(Cl)c3)CC2)ccc1O | 
4.3 nM | 17 nM | > 10000 nM | 28 µL/min/mg | 49 µL/min/mg | CS(=O)(=O)Nc1cc([C@@H](O)CNCCCCCCCCCN2C[C@H]3C[C@@]3(COC(=O)Nc3ccccc3-c3ccc(O)c(Cl)c3)C2)ccc1O | 
4.4 nM | 195 nM | > 10000 nM | 16 µL/min/mg | 45 µL/min/mg | CS(=O)(=O)Nc1cc([C@@H](O)CNCCCCCCCCCCCN2CCC(OC(=O)Nc3ccccc3-c3ccc(O)c(Cl)c3)CC2)ccc1O | 
2 nM | 14 nM | > 10000 nM | 6 µL/min/mg | 29 µL/min/mg | Cc1ccc(-c2ccc(O)c(Cl)c2)c(NC(=O)OC2CCN(CCCCCCCCCNC[C@H](O)c3ccc(O)c(NS(C)(=O)=O)c3)CC2)c1 | 

— ChEMBL document CHEMBL3217601, “Optimized glucuronidation of dual pharmacology -2 agonists/M3 antagonists for the treatment of COPD” (Medchemcomm, 2011)
